Source: US12479847B2 (DANA-FARBER CANCER INSTITUTE, INC., priority 2019, dated 2025)

Assays:
Test in all cases: KINOMEscan (ScanMAX) kinase profiling
Assay type in all cases: binding
panel of 468 kinases [1] = target: T1, panel of 468 kinases (Homo sapiens, UniProt P36888, D835H); conditions: FLT3(D835H); 1 μM; read-out: % control
T1 construct: purchased KINOMEscan (ScanMAX) service
T1 sequence (P36888 27-993 D835H): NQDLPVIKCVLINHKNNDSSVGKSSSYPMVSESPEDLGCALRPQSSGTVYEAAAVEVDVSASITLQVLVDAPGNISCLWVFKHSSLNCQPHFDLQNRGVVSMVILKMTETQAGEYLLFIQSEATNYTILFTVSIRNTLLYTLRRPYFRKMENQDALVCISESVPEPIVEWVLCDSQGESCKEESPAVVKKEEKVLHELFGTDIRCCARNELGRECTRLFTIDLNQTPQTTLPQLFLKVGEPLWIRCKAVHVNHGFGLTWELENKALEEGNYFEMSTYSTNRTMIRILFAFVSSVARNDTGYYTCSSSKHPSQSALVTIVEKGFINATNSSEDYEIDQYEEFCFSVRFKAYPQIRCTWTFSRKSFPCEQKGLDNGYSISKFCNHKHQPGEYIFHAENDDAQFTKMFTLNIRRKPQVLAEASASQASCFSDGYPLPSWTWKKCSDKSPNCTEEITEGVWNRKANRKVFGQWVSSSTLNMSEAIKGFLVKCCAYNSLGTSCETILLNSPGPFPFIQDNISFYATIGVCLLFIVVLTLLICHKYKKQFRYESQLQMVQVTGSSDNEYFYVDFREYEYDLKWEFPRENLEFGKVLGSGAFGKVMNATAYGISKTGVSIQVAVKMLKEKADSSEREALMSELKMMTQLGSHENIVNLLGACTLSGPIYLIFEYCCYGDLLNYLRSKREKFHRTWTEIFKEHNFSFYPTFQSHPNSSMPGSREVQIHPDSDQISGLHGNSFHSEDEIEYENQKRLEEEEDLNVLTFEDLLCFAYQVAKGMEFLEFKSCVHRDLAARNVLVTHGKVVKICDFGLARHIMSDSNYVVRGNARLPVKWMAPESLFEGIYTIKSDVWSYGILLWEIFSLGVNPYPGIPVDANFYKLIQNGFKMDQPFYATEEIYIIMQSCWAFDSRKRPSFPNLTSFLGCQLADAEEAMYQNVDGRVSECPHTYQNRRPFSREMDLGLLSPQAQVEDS

panel of 468 kinases [2] = target: T2, panel of 468 kinases (Homo sapiens, UniProt P57059); conditions: SIK; 1 μM; read-out: % control
T2 construct: purchased KINOMEscan (ScanMAX) service
T2 sequence (P57059 whole entry): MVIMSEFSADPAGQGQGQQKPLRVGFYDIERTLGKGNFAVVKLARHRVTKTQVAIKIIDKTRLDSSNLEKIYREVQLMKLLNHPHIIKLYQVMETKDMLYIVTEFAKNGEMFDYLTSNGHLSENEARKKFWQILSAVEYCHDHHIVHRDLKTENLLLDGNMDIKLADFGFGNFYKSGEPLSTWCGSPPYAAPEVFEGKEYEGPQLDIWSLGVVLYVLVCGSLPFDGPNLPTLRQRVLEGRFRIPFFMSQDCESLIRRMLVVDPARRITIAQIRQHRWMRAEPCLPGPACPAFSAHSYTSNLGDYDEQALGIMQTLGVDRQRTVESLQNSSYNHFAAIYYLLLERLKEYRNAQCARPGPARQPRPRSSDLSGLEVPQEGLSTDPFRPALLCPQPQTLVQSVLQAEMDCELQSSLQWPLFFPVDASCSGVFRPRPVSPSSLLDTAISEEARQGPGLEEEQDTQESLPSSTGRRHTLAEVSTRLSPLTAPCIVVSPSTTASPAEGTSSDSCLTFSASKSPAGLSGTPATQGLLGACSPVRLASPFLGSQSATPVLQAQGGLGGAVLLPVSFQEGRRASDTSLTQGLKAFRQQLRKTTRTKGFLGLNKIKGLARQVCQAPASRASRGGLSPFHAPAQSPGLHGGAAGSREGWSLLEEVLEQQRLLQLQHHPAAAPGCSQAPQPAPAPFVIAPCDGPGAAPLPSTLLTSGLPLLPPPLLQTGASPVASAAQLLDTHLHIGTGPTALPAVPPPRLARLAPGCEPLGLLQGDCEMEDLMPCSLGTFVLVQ

panel of 468 kinases [3] = target: T3, panel of 468 kinases (Homo sapiens, UniProt P36896); conditions: ACVR1B; 1 μM; read-out: % control
T3 construct: purchased KINOMEscan (ScanMAX) service
T3 sequence (P36896 24-505): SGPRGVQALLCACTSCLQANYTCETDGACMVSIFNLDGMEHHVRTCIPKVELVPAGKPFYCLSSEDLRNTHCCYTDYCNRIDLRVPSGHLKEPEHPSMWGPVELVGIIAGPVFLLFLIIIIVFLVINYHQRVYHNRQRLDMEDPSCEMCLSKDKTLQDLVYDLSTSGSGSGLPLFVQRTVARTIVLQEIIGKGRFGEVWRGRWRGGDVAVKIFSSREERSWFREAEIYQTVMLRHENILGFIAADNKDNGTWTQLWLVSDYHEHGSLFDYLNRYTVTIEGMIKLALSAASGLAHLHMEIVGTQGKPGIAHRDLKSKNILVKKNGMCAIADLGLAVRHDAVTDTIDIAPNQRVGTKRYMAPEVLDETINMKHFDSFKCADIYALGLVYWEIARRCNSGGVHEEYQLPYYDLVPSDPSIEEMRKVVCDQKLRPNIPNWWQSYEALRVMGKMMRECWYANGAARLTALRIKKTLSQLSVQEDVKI

panel of 468 kinases [4] = target: T4, panel of 468 kinases (Homo sapiens, UniProt Q8TD19); conditions: NEK9; 1 μM; read-out: % control
T4 construct: purchased KINOMEscan (ScanMAX) service
T4 sequence (Q8TD19 1-979): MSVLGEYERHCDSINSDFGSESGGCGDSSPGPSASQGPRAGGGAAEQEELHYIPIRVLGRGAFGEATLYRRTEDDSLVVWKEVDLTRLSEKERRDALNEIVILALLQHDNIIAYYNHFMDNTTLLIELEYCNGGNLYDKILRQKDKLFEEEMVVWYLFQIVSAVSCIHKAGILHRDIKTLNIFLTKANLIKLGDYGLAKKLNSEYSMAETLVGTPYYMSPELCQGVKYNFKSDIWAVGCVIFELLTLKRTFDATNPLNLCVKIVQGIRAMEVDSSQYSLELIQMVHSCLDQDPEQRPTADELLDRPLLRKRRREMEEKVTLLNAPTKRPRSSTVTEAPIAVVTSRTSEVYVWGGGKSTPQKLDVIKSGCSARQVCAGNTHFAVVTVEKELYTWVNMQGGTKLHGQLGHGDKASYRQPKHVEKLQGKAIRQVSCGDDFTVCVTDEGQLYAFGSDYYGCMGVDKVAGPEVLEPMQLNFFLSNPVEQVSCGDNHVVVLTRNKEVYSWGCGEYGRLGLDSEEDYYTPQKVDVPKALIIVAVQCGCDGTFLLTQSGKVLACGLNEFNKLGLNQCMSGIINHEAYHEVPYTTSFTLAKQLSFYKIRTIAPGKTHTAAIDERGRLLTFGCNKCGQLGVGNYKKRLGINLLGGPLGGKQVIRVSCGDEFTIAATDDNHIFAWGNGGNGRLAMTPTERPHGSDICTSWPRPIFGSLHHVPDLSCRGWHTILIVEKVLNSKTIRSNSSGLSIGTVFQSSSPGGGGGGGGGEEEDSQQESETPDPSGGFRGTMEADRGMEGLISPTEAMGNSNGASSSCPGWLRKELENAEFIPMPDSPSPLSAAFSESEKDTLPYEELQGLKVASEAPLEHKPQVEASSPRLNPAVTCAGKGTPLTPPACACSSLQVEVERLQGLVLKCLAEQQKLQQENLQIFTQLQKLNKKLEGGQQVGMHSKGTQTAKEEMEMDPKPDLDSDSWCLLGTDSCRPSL

panel of 468 kinases [5] = target: T5, panel of 468 kinases (Homo sapiens, UniProt P42336, H1047Y); conditions: PIK3CA(H1047Y); 1 μM; read-out: % control
T5 construct: purchased KINOMEscan (ScanMAX) service
T5 sequence (P42336 whole entry H1047Y): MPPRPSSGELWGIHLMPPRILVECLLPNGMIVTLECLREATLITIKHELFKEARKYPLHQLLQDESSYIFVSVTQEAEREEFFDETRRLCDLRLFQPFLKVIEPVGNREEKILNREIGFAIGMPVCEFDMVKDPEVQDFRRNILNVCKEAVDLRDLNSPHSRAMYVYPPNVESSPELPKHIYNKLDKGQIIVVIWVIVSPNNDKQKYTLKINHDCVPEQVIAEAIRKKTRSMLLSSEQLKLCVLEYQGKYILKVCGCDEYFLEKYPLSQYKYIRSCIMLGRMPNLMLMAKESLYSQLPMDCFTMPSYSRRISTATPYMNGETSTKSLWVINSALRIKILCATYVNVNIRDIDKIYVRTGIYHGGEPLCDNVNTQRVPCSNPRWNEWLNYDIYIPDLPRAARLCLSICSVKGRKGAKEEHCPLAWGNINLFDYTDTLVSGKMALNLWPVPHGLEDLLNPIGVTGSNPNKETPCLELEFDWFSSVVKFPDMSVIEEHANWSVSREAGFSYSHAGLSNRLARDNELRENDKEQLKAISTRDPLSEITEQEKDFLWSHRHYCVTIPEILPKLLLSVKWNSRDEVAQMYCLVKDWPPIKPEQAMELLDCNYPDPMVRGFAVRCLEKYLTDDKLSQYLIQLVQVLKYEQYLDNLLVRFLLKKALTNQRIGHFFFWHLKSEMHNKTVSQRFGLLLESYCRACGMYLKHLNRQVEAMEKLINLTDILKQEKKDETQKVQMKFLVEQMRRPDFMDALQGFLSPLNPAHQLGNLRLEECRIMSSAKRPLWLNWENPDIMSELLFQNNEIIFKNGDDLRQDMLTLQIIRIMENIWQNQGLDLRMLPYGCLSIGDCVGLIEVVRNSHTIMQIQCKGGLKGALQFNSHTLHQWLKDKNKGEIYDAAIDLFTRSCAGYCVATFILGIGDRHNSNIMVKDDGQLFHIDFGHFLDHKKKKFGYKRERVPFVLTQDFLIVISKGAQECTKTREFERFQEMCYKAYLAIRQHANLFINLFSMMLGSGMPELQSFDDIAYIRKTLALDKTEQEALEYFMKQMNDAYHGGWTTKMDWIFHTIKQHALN

SMILES	remaining binding at 1 µM (panel of 468 kinases [1])	remaining binding at 1 µM (panel of 468 kinases [2])	remaining binding at 1 µM (panel of 468 kinases [3])	remaining binding at 1 µM (panel of 468 kinases [4])	remaining binding at 1 µM (panel of 468 kinases [5])
CNc1nc(Nc2ccc(S(=O)(=O)N3CCC(N4CCOCC4)CC3)cc2OC)nc2[nH]cc(Cl)c12 [Compound 12, 5-chloro-N2-(2-methoxy-4-((4-morpholinopiperidin-1-yl)sulfonyl)phenyl)-N4-methyl-7H-pyrrolo[2,3-d]pyrimidine-2,4-diamine]	100%	100%	100%	100%	64%
CNc1nc(Nc2ccc(C(=O)N3CCC(N4CCOCC4)CC3)c3c2OCO3)nc2[nH]cc(Cl)c12 [Compound 75, (7-((5-chloro-4-(methylamino)-7H-pyrrolo[2,3-d]pyrimidin-2-yl)amino)benzo[d][1,3]dioxol-4-yl)(4-morpholinopiperidin-1-yl)methanone]	37%	100%	100%	100%	68%
CNc1nc(Nc2ccc(P3(=O)CCN(C4CCOCC4)CC3)cc2OC)nc2[nH]cc(Cl)c12 [Compound 77, 4-(4-((5-chloro-4-(methylamino)-7H-pyrrolo[2,3-d]pyrimidin-2-yl)amino)-3-methoxyphenyl)-1-(tetrahydro-2H-pyran-4-yl)-1,4-azaphosphinane 4-oxide]	84%	100%	100%	100%	73%
